Test results reported in patent US20100234469A1, “New Crystals Of A Benzoylbenzeneacetamide Derivative” (Medichem, S.A., priority 2009, published 2010).
In brackets after ≈: the same amount, converted by molar mass. Read-outs that look alike come from different tables or passages of the source. Each block holds one molecule with its values, some of them ahead of it.

Columns and labels:
[1] = Particle size distribution (Malvern Mastersizer S); assay type: physicochemical; conditions: for D[4,3]: mean diameter by volume; for DMVS (μm): Table 4, surface area mean diameter (D[3,2])
Protocol: The particle size for nepafenac was measured using a Malvern Mastersizer S particle size analyzer with an MS1-Small Volume Sample Dispersion Unit stirred cell. A 300RF mm lens and a beam length of 2.4 mm were used. Samples for analysis were prepared by wetting a weighed amount of nepafenac (approximately 50 mg) with 0.5 mL of a 1% solution of Igepal CA-630 in deionized water, and dispersing in 20 mL of deionized water. After sonication for 1 minute, the suspension was delivered drop-wise to the previously background and corrected measuring cell filled with dispersant (deionized water) until the obscuration reached the desired level. Volume distributions were obtained for three times. After completing the measurements, the sample cell was emptied and cleaned, refilled with suspending medium, and the sampling procedure repeated again. For characterization, the values of D10, D50 and D90 (by volume), D[4,3] (mean diameter by volume) and D[3,2] (mean diameter by surface area to volume, or Sauter diameter) were specifically listed, each one being the mean of the six values available for each characterization parameter.
The notation Dx means that X % of the particles have a diameter less than a specified diameter D. Thus a D90 [or D(v, 0.9)] of 100 μm means that 90% of the particles have a diameter less than 100 μm.

[2] = Solubility of nepafenac at reflux temperature in crystallization solvent; assay type: physicochemical
Protocol: General procedure: Nepafenac was dissolved under magnetical stirring and at reflux in a solvent (See Table 1). The solution was cooled to room temperature under stirring. The solid was filtered and dried. The different conditions and the obtained results are described in Table 1 below.

[3] = Optical microscopy: crystal shape and aspect ratio; assay type: physicochemical; conditions: for Crystal shape: optical microscopy, 40× magnification; for Aspect ratio: crystal length / width, average of at least 100 crystals
Source text: The “aspect ratio” of a crystal is defined as the ratio of its longest dimension to its shortest dimension. As used herein, “aspect ratio” is the quotient of the division of a crystal's length by its width. The aspect ratio of crystals can be obtained by taking micrographs of a batch of crystal (See General Experimental Conditions. Optical Microscopy).
The micrographs were taken at 40× magnification.
The aspect ratio of crystals was obtained from micrographs of a batch of crystal. Micrographs were processed with ImageJ 1.42q software. Length and width of at least 100 representative crystals (i.e., having an area greater than 500 μm^2 for a 40× magnification image) was measured, and the aspect ratio of each crystal was calculated by dividing the crystal length by the crystal width. The average aspect ratio for each batch was determined by dividing the sum of crystal aspect ratios by the number of crystals measured.

[4] = Chargeability observed when handling crystals with a metallic material; assay type: physicochemical
Source text: Drug substances in solid form can suffer electrostatic charging by contact or friction electrification (tribocharging) caused by interactions among particles or between particles and the surfaces that contain them. These interactions can affect formulation, manufacture, powder flow, and packing behaviour. In addition, it has been reported that electrostatic charges are also responsible for problems in blend uniformity. The net positive or negative tendency of dry powders to become charged electrostatically is called chargeability.
There is no standard instrument for the measurement of the chargeability of dry powders (see AAPS PharmSciTech 2006, 7, Article 103). Triboelectric charge is commonly reported on a charge-to-mass basis since net charge and mass can be easily measured. However, triboelectric and induction charging are more closely related to the surface area of a particle rather to volume or mass. Then, it is well known that the surface area of the particles plays a key role in dry powder chargeability, and that therefore the particles having a higher specific surface area can hold a greater charge.

[5] = BET specific surface area; assay type: physicochemical; conditions: for Specific Surface Area (BET): N2 adsorption at 77 K; for Sw (m^2/g): Table 4, powder specific surface area
Protocol: The BET (Brunauer, Emmett and Teller) specific surface area for nepafenac was measured using a Micromeritics™ GEMINI V equipment (GEMINI CONFIRM V2.00 Software™). The sample for analysis was degassed at 30° C. for 10 minutes and at 140° C. for one hour. The determination of the adsorption of N2 at 77 K was measured for relative pressures in the range of 0.02 to 0.2 for a weighed amount of nepafenac (i.e., approximately 0.5 g).

[6] = Flowability by Hausner ratio (tapped / bulk density); assay type: physicochemical; conditions: micronized crystals
Protocol: Flowability affects the ease with which the material is handled during processing into a pharmaceutical product. Namely, when flowability is very poor, problems occur with handling and processing during formulating. The flowability of nepafenac can be measured using the Hausner ratio, which is a value calculated by dividing the tapped bulk density of nepafenac by the freely settled bulk density of nepafenac. The freely settled bulk density is calculated by pouring a known weight of material into a measuring cylinder and recording the volume. The tapped density is calculated by tapping the cylinder against a surface for a specified number of times and recording again the new volume. See Henry H. Hausner, “Friction Conditions in a Mass of Metal Powders”, Int. J. Powder Metall. Vol. 3, 1967, pp 7-13.
A low Hausner ratio indicates a high flowability. […]
Measurement of Hausner ratio is well-known in the art and is described, for example, by Mersmann; Crystallization Technology Handbook (A. Mersmann, ed., 2nd Ed., Marcel Dekker). In the present invention, the bulk and tapped densities for each sample of nepafenac were determined using a TP-TD1 tapped densitometer from Pharma Test. The Hausner ratio of the nepafenac sample was calculated by dividing the tapped bulk density by the bulk density.

[7] = Density by glass pycnometer in n-heptane; assay type: physicochemical; conditions: for ρ: Table 4, particle density
Protocol: Density of nepafenac samples was determined at 25° C. using a 50 mL glass pycnometer. […] The density of the nepafenac sample (ρs) can be determined from the known density of n-heptane (ρH: 0.685 g/cm^3), the weight of the pycnometer filled only with n-heptane (WH^0, the weight of the filled pycnometer containing both nepafenac and n-heptane (WS+H), and the weight of nepafenac (WS):
Density of nepafenac samples was determined for three times, being the listed result the mean of the three values available for each sample.

[8] = Sphericity factor calculation; assay type: physicochemical; conditions: calculated from Sw, ρ and DMVS
Source text: One of the most common ways of expressing the degree of irregularity of the particles is by means of the sphericity factor (ψw), which is generally defined as the ratio between the surface area of a sphere having the same volume as the particle and the surface area of the particle:
Because sphericity factors are not calculated for each particle but for an assembly of particles, they have to be based on an average size. Thus, the sphericity factor will then be given by the following equation: […]
where Sw is the powder specific surface area, ρ is the particle density and DMVS is the surface area mean diameter, also referred to as the mean volume-surface, the Sauter diameter or D[3,2]. The Sauter diameter is defined as the diameter of a sphere that has the same volume/surface area ratio as the particle of interest.
A sphericity factor of 1.0 describes a perfect sphere with the greatest ease of flow (Encapsulated and powdered foods, CRC Press 2005).

[9] = Solubility statements (water, n-heptane); assay type: physicochemical; conditions: n-heptane at the working temperature (25° C.)
[10] = stated as known; cited from earlier work
[11] = Table 3, micronized samples, unit inferred

D10 [1, 11]: 6.1 µm | D50 [1, 11]: 21.4 µm | D90 [1, 11]: 64.3 µm
SMILES: NC(=O)Cc1cccc(C(=O)c2ccccc2)c1N [Batch 1, 2-amino-3-benzoylbenzeneacetamide]

D10 [1, 11]: 4.8 µm | D50 [1, 11]: 19.8 µm | D90 [1, 11]: 66.5 µm
SMILES: NC(=O)Cc1cccc(C(=O)c2ccccc2)c1N [Batch 2, 2-amino-3-benzoylbenzeneacetamide]

D10 [1, 11]: 4.4 µm | D50 [1, 11]: 14.9 µm | D90 [1, 11]: 45.3 µm
SMILES: NC(=O)Cc1cccc(C(=O)c2ccccc2)c1N [Batch 3, 2-amino-3-benzoylbenzeneacetamide]

solubility ([2]; in 2-propanol at reflux temperature): 21.2 mg/mL (≈ 83.4 mM) | Crystal shape [3]: needle-like shape | Chargeability [4]: high chargeability
SMILES: NC(=O)Cc1cccc(C(=O)c2ccccc2)c1N [Comparative Example 1, 2-amino-3-benzoylbenzeneacetamide, reference compound]

Aspect ratio [3]: 5.67 | Crystal shape [3]: Needle-like crystals
SMILES: NC(=O)Cc1cccc(C(=O)c2ccccc2)c1N [Comparative Example 2, 2-amino-3-benzoylbenzeneacetamide, reference compound]

Crystal shape [3]: Needle-like crystals | D10 ([1]; by volume): 23.6 μm | D50 ([1]; by volume): 85.8 μm | D90 ([1]; by volume): 491.1 μm | D[4,3] ([1]; unit not given, in µm (unit assumed)): 178.4 | Specific Surface Area (BET) [5]: 0.8256±0.0270 m^2/g
SMILES: NC(=O)Cc1cccc(C(=O)c2ccccc2)c1N [Comparative Example 3, 2-amino-3-benzoylbenzeneacetamide, reference compound]

solubility ([2]; 2-propanol:water 90:10, organic solvent or mixture, thermodynamic from solid, in 2-propanol:water 90:10 at reflux, read-out: Solubility): 55.2 mg/mL (≈ 217 mM) | Aspect ratio [3]: 3.04 | Crystal shape [3]: Plate
SMILES: NC(=O)Cc1cccc(C(=O)c2ccccc2)c1N [Example 1, 2-amino-3-benzoylbenzeneacetamide]

solubility ([2]; 2-propanol:water 80:20, organic solvent or mixture, thermodynamic from solid, in 2-propanol:water 80:20 at reflux, read-out: Solubility): 78.6 mg/mL (≈ 309 mM) | Crystal shape [3]: Plate
SMILES: NC(=O)Cc1cccc(C(=O)c2ccccc2)c1N [Example 2, 2-amino-3-benzoylbenzeneacetamide]

solubility ([2]; 2-propanol:water 70:30, organic solvent or mixture, thermodynamic from solid, in 2-propanol:water 70:30 at reflux, read-out: Solubility): 79.6 mg/mL (≈ 313 mM) | Crystal shape [3]: Plate
SMILES: NC(=O)Cc1cccc(C(=O)c2ccccc2)c1N [Example 3, 2-amino-3-benzoylbenzeneacetamide]

solubility ([2]; 2-propanol:water 60:40, organic solvent or mixture, thermodynamic from solid, in 2-propanol:water 60:40 at reflux, read-out: Solubility): 32.6 mg/mL (≈ 128 mM) | Crystal shape [3]: Plate
SMILES: NC(=O)Cc1cccc(C(=O)c2ccccc2)c1N [Example 4, 2-amino-3-benzoylbenzeneacetamide]

Crystal shape [3]: plate-like shape | Chargeability [4]: Reduced chargeability
SMILES: NC(=O)Cc1cccc(C(=O)c2ccccc2)c1N [Example 5, 2-amino-3-benzoylbenzeneacetamide]

Crystal shape [3]: plate-like crystals | D10 ([1]; by volume): 30.5 μm | D50 ([1]; by volume): 144.9 μm | D90 ([1]; by volume): 401.8 μm | D[4,3] [1]: 185.0 μm | Specific Surface Area (BET) [5]: 0.7046±0.0272 m^2/g
SMILES: NC(=O)Cc1cccc(C(=O)c2ccccc2)c1N [Example 6, 2-amino-3-benzoylbenzeneacetamide]

D10 ([1]; by volume): 1.3 μm | D50 ([1]; by volume): 6.1 μm | D90 ([1]; by volume): 17.1 μm
SMILES: NC(=O)Cc1cccc(C(=O)c2ccccc2)c1N [Example 7, 2-amino-3-benzoylbenzeneacetamide, reference compound]

DMVS (μm) [1]: 2.5 μm | D10 ([1]; by volume): 1.2 μm | D50 ([1]; by volume): 5.8 μm | D90 ([1]; by volume): 18.9 μm | Sw (m^2/g) [5]: 1.7686 ± 0.0242 m^2/g | Hausner ratio [6]: 1.43 | ρ [7]: 1.33 g/mL | Ψw (sphericity factor) [8]: 1.0
SMILES: NC(=O)Cc1cccc(C(=O)c2ccccc2)c1N [Example 8, 2-amino-3-benzoylbenzeneacetamide]

DMVS (μm) [1]: 2.7 μm | D10 ([1]; by volume): 2.2 μm | D50 ([1]; by volume): 12.1 μm | D90 ([1]; by volume): 27.5 μm | D[3,2] ([1]; mean diameter by surface area to volume (Sauter diameter)): 2.7 μm | Sw (m^2/g) [5]: 2.0341 ± 0.0074 m^2/g | ρ [7]: 1.33 g/mL | Ψw (sphericity factor) [8]: 0.82
SMILES: NC(=O)Cc1cccc(C(=O)c2ccccc2)c1N [Example 10, 2-amino-3-benzoylbenzeneacetamide]

solubility ([2]; 2-propanol, organic solvent or mixture, thermodynamic from solid, in 2-propanol at reflux temperature, read-out: Solubility): 21 mg/mL (≈ 82.6 mM) | solubility ([2]; mixtures of 2-propanol with up to 40% of water, organic solvent or mixture, thermodynamic from solid, in mixtures of 2-propanol with up to 40% of water at reflux temperature, read-out: Solubility): 30 to 80 mg/mL (≈ 118 to 315 mM) | solubility ([2]; water, 100 °C, water, thermodynamic from solid, in water at reflux temperature, read-out: Solubility): 0.7 mg/mL (≈ 2.75 mM) | True density ([7]; experimental): 1.33 g/mL | Solubility in n-heptane [9]: practically insoluble
SMILES: NC(=O)Cc1cccc(C(=O)c2ccccc2)c1N [nepafenac, 2-amino-3-benzoylbenzeneacetamide, reference compound]
Solubility in water [10]: practically insoluble
